Key:
[1] = molecular target: T1, recombinant human CYP11B1 (Homo sapiens, UniProt P15538); assay: CYP11B1 enzyme assay with enzyme enriched microsomes, cortisol measured by LC-MS; assay type: biochemical; settings: microsomes from V79-4 cells; 11-deoxycortisol at Km; read-out: hCYP11B1 IC50
T1 construct: made in house; host or cells: V79-4 cells (Chinese hamster lung fibroblasts); enzyme-enriched microsomal fraction of the lysate
T1 sequence (P15538 25-503): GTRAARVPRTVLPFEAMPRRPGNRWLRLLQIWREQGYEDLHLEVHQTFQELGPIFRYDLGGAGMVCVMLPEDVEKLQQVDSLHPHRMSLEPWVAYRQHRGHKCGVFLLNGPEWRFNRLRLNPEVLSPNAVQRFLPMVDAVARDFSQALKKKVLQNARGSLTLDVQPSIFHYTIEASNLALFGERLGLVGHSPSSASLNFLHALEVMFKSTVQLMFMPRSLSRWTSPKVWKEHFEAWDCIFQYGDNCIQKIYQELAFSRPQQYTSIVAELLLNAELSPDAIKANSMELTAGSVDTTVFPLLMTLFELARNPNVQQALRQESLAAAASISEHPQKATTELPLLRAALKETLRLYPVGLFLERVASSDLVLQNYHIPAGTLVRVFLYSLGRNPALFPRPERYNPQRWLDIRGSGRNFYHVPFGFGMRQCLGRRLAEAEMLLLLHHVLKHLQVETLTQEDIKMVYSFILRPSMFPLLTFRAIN
Method: (§1) V79-4 cells expressing recombinant andrenodoxin and andrenodoxin reductase with either recombinant human CYP11B2 or CYP11B1 were prepared according to methods previously described (LaSala et al 2009 Anal Bioch 394:56-61). An enzyme enriched microsomal fraction was prepared from cellular lysates and subsequently used as the enzyme source for determining inhibitor IC50s. The substrate Km values were experimentally determined for 11-deoxycorticosterone (CYP11B2 substrate) and 11-deoxycortisol (CYP11B1 substrate). Enzyme assays for inhibitor screening employed CYP11B2 and CYP11B1 enzyme enriched microsomes and were run at the Km of the respective substrates. Products of the enzyme reactions, aldosterone for CYP11B2 or cortisol for CYP11B1, were measured by LC-MS. Assays were run under conditions of less than 20% substrate turnover. Inhibitor IC50s were generated by determining the product formation in the absence or presence of inhibitor at various concentrations. In the absence of the test compound, the product formed (Pt) in each data set was defined as 100% activity. In the absence of enzyme, the product formed (Pb) in each data set was defined as 0% activity. The percent activity in the presence of each inhibitor was calculated according to the following equation: % activity=(P−Pb)/(Pt−Pb), where P=the product formed in the presence of the inhibitor. The IC50 value was defined as the inhibitor concentration causing a 50% decrease in activity relative to the no inhibitor control reaction.

[2] = molecular target: T2, recombinant human CYP11B2 (Homo sapiens, UniProt P19099); assay: CYP11B2 enzyme assay with enzyme enriched microsomes, aldosterone measured by LC-MS; assay type: biochemical; settings: microsomes from V79-4 cells; 11-deoxycorticosterone at Km; read-out: hCYP11B2 IC50
T2 construct: made in house; host or cells: V79-4 cells (Chinese hamster lung fibroblasts); enzyme-enriched microsomal fraction of the lysate
T2 sequence (P19099 25-503): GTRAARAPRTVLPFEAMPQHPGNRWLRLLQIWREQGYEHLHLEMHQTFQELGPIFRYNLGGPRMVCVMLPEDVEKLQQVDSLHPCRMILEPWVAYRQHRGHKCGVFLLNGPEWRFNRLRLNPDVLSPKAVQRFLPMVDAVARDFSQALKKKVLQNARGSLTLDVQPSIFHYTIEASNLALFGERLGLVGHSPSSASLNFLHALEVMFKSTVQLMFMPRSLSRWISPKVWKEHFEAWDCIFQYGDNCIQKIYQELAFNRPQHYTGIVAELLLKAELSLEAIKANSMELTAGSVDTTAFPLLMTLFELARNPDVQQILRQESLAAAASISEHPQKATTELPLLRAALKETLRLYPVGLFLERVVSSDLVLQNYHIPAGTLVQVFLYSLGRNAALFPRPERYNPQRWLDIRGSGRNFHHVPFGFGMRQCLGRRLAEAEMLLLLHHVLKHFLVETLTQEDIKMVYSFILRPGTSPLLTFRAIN
Method: as §1

Row | Structure (SMILES) | IC50 [1] | IC50 [2]
1 | CS(=O)(=O)Nc1ccc2ncn(-c3nc4ccc(F)c(F)c4n3C3CC3)c2c1 [Example 33, N-(1′-cyclopropyl-6′,7′-difluoro-1′H-[1,2′-bibenzo[d]imidazol]-6-yl) methanesulfonamide] | > 10000 nM | 1000 to 10000 nM
2 | Fc1cc2nc(-n3cnc4ncccc43)n(C3CC3)c2cc1F [Example 34, 1-(1-cyclopropyl-5,6-difluoro-1H-benzo[d]imidazol-2-yl)-1H-imidazo[4,5-b]pyridine] | > 10000 nM | 1000 to 10000 nM
3 | Fc1cc2nc(-n3cnc4cnccc43)n(C3CC3)c2cc1F [Example 35, 1-(1-cyclopropyl-5,6-difluoro-1H-benzo[d]imidazol-2-yl)-1H-imidazo[4,5-c]pyridine] | 1000 to 10000 nM | 1 to 100 nM
4 | Fc1cc2nc(-n3cnc4ccncc43)n(C3CC3)c2cc1F [Example 36, 3-(1-cyclopropyl-5,6-difluoro-1H-benzo[d]imidazol-2-yl)-3H-imidazo[4,5-c] pyridine] | 1000 to 10000 nM | 1 to 100 nM
5 | O=C(O)c1cc2c(cn1)ncn2-c1nc2cc(F)c(F)cc2n1C1CC1 [Example 39, 1-(1-cyclopropyl-5,6-difluoro-1H-benzo[d]imidazol-2-yl)-1H-imidazo[4,5-c]pyridine-6-carboxylic acid] | > 10000 nM | 1000 to 10000 nM
6 | Fc1cc2nc(-n3cnc4cnc(C(F)F)cc43)n(C3CC3)c2cc1F [Example 40, 1-(1-cyclopropyl-5,6-difluoro-1H-benzo[d]imidazol-2-yl)-6-(difluoromethyl)-1H-imidazo[4,5-c]pyridine] | > 10000 nM | 1 to 100 nM
7 | Fc1cc2nc(-n3cnc4cc(C(F)F)ncc43)n(C3CC3)c2cc1F [Example 41, 3-(1-cyclopropyl-5,6-difluoro-1H-benzo[d]imidazol-2-yl)-6-(difluoromethyl)-3H-imidazo[4,5-c]pyridine] | 1000 to 10000 nM | 1 to 100 nM
8 | N#Cc1ccc2nc(-n3cnc4ccncc43)n(C3CC3)c2c1 [Example 42, 1-cyclopropyl-2-(3H-imidazo[4,5-c]pyridin-3-yl)-1H-benzo[d]imidazole-6-carbonitrile] | > 10000 nM | 1 to 100 nM
9 | N#Cc1ccc2nc(-n3cnc4cnccc43)n(C3CC3)c2c1 [Example 43, 1-cyclopropyl-2-(1H-imidazo[4,5-c]pyridin-1-yl)-1H-benzo[d]imidazole-6-carbonitrile] | > 10000 nM | 1 to 100 nM
10 | O=C(O)c1ccc2c(c1)ncn2-c1nc2cc(F)c(F)cc2n1C1CC1 [Example 44, 1′-cyclopropyl-5′,6′-difluoro-1′H-[1,2′-bibenzo[d]imidazole]-5-carboxylic acid] | > 10000 nM | 1000 to 10000 nM
11 | CS(=O)(=O)Nc1ccc2ncn(-c3nc4cc(F)c(F)cc4n3C3CC3)c2c1 [Example 45, N-(1′-cyclopropyl-5′,6′-difluoro-1′H-[1,2′-bibenzo[d]imidazol]-6-yl) methanesulfonamide] | > 10000 nM | 1000 to 10000 nM
12 | CS(=O)(=O)Nc1ccc2c(c1)ncn2-c1nc2cc(F)c(F)cc2n1C1CC1 [Example 46, N-(1′-cyclopropyl-5′,6′-difluoro-1′H-[1,2′-bibenzo[d]imidazol]-5-yl) methanesulfonamide] | > 10000 nM | 100 to 1000 nM
13 | CS(=O)(=O)Nc1ccc2c(c1)ncn2-c1nc2ccc(C#N)cc2n1C1CC1 [Example 47, N-(6′-cyano-1′-cyclopropyl-1′H-[1,2′-bibenzo[d]imidazol]-5-yl) methanesulfonamide] | > 10000 nM | 100 to 1000 nM
14 | CS(=O)(=O)Nc1ccc2ncn(-c3nc4ccc(C#N)cc4n3C3CC3)c2c1 [Example 48, N-(6′-cyano-1′-cyclopropyl-1′H-[1,2′-bibenzo[d]imidazol]-6-yl) methanesulfonamide] | > 10000 nM | 1000 to 10000 nM
15 | N#Cc1ccc2nc(-n3cnc4cc(OC(F)F)ccc43)n(C3CC3)c2c1 [Example 49, 1′-cyclopropyl-5-(difluoromethoxy)-1′H-[1,2′-bibenzo[d]imidazole]-6′-carbonitrile] | 100 to 1000 nM | 1 to 100 nM
16 | N#Cc1ccc2nc(-n3cnc4ccc(OC(F)F)cc43)n(C3CC3)c2c1 [Example 50, 1′-cyclopropyl-6-(difluoromethoxy)-1′H-[1,2′-bibenzo[d]imidazole]-6′-carbonitrile] | 1000 to 10000 nM | 1 to 100 nM
17 | Fc1cc2nc(-n3cnc4cc(OC(F)F)ccc43)n(C3CC3)c2cc1F [Example 52, 1′-cyclopropyl-5-(difluoromethoxy)-5′,6′-difluoro-1′H-1,2′-bibenzo[d]imidazole] | 100 to 1000 nM | 1 to 100 nM
18 | Fc1cc2nc(-n3cnc4ccc(OC(F)F)cc43)n(C3CC3)c2cc1F [Example 53, 1′-cyclopropyl-6-(difluoromethoxy)-5′,6′-difluoro-1′H-1,2′-bibenzo[d]imidazole] | 1000 to 10000 nM | 1 to 100 nM

Reference: patent US12358893B2, “Metalloenzyme inhibitor compounds” (Corxel Pharmaceuticals Hong Kong Limited, priority 2019, dated 2025)
